Data on 2 compounds can be found in ChEMBL document CHEMBL4706501, “Drug repurposing: Discovery of troxipide analogs as potent antitumor agents” (Eur J Med Chem, 2020).

Common to all, as to format: functional, cell-based
One test relates to PC-3. Kind of test: Antiproliferative activity against human PC3 cells assessed as reduction in cell viability after 24 to 72 hrs by MTT assay. On the technique in general: Tetrazolium assays rely on reduction of a dye to a coloured formazan, in cell work by metabolically active cells.
Another test deals with PC-9. In words: Antiproliferative activity against human PC9 cells assessed as reduction in cell viability after 24 to 72 hrs by MTT assay.
A further test relates to MCF7. In words: Antiproliferative activity against human MCF7 cells assessed as reduction in cell viability after 24 to 72 hrs by MTT assay.
The next test relates to MGC-803. In words: Antiproliferative activity against human MGC-803 cells assessed as reduction in cell viability after 24 to 72 hrs by MTT assay.

Some results are limits rather than exact numbers.

Usually IC50 stands for the concentration that gives 50% inhibition. In the case of `O=c1[nH]cc(F)c(=O)[nH]1` [FLUOROURACIL], the concentration for half-maximal inhibition (IC50) in the test with PC-3 came out at 5.32 µM; in the test on PC-9 it was 4.12 µM.

Turning to `COc1cc(C(=O)NC2CCCNC2)cc(OC)c1OC` (stereo unspecified) [TROXIPIDE], the IC50 in the test on MCF7, with PC-3, in the test with MGC-803 and in the test on PC-9 was greater than 100 µM in each case.
